In patent publication US8772274B1, “Anti-cancer compositions and methods” (The Penn State Research Foundation, priority 2008, dated 2014):
Structures can show the parent of a compound that is named as a salt. Where two headings read alike, the source gives them in different places.

Experiments:
[1] = tested on: MDA-MB-231 breast adenocarcinoma cells; test: MTS cell viability assay, MDA-MB-231; format: cell-based, human
Protocol: (§2) Growth inhibitory effects on cultured cells from human vertical growth phase (VGP) melanoma cell line WM115, Lung adenocarcinoma (A549), fibrosarcoma (HT-1080), prostate adenocarcinoma (PC-3), ovarian carcinoma (OVCAR-3), and breast adenocarcinoma (MDA-MB-231) are plated in 96 well plates at a density of 5×10^3 cells/well in 100 μl media. […] Dose response curves for each compound are generated and the IC50 values (μM) determined using GraphPad Prism software. Each experiment is replicated at least 3 times and the average IC50 (μM) values with standard error represented.

UACC 903 melanoma cells = test: Cellular proliferation, BrdU ELISA; format: cell-based; settings: 2 μM, 24 hours
Protocol: Cellular proliferation and apoptosis rates are measured by seeding 5×10^3 cells in 96-well plates, followed by treatment for 24 hours with PBISe or PBIT (0.5-10.5 μM). Proliferation and apoptosis rates are measured using a BrdU ELISA kit (Roche Applied Sciences, Indianapolis, Ind.) and Apo-ONE Homogenous caspase-3/7 Assay kit (Promega, Madison, Wis.), respectively, (Madhunapantula S V, et al., Cancer Res 2007; 67:3626-36).

[2] = tested on: HCT-116 colorectal adenocarcinoma cells; test: MTS cell viability assay, HCT-116; format: cell-based; settings: Homo sapiens; HCT-116; 24-72 hours; MTS; read-out: Inhibition of growth IC50, HCT-116 (Table II)
[3] = tested on: normal human fibroblast FF2441 and UACC 903 cells; test: Sensitivity of melanoma cells compared to normal cells; format: cell-based; settings: FF2441 vs UACC 903; 2, 4, 6, 12 and 24 hours
Source text: Sensitivity of melanoma cells to PBISe is compared to normal cells. […] Thus, cultured cancer cells are 2-5 fold more sensitive to PBISe than normal cells.

[4] = Systemic toxicity assessment, i.p. treatment; format: in vivo; settings: nude mice, 3 weeks
Protocol: (§1) Tumor kinetics are measured by subcutaneous injection of 5×10^6 UACC 903 or 2.5×10^61205 Lu cells in 0.2 ml of DMEM containing 10% FBS above left and right rib cages of 4-6 week old female nude mice (Harlan Sprague Dawley, Indianapolis, Ind.). Six days later, a fully vascularized tumor has developed and mice are randomly placed in control DMSO or experimental (PBIT or PBISe) groups (n=5 animals; 10 tumors total) followed by i.p. treatment with PBIT ([…]) or PBISe ([…]; equivalent to 2.5 ppm selenium per 20 g mouse) on Monday, Wednesday and Friday for 3 weeks. Dimensions of developing tumors and body weight are measured.
Systemic toxicity of PBISe in animals is evaluated in nude mice. Mice are exposed to PBISe or PBIT ([…]), or vehicle DMSO, 3 times per week and animals weighed to ascertain possible toxicity. 4-6 week old female nude mice (Harlan Sprague Dawley, Indianapolis, Ind.) are injected i. p. with either control DMSO vehicle, PBIT or PBISe (0.315 μmoles each) for 3 weeks by following the regime used for tumorigenicity. Blood is then collected from each animal in plasma separator tubes with lithium heparin (BD Microtainer, BD, Franklin Lakes, N.J.) following cardiac puncture and analyzed for SGOT, SGPT, alkaline phosphatase, glucose and creatinine to ascertain liver, heart, kidney and pancreas related toxicity. For morphological examination of blood cells, whole blood is collected in microtainer tubes containing K2EDTA (BD Microtainer, BD, Franklin Lakes, N.J.) and RBC, WBC, lymphocytes, monocytes, eosinophils, platelets, total hemoglobin and hematocrit percentage analyzed. Blood is also microscopically examined for segregates, polychromatin bodies, and smudge cells. A portion of vital organs—liver, heart, kidney, intestine, pancreas and adrenal—from each animal is formalin fixed and paraffin-embedded to examine for toxicity-associated changes in cell morphology and organization following H&E staining. […] Thus, PBISe treatment has negligible associated systemic toxicity at the concentrations examined.

[5] = tested on: A549 lung adenocarcinoma cells; test: MTS cell viability assay, A549; format: cell-based, human
Protocol: as §2

[6] = tested on: HT-29 colorectal adenocarcinoma cells; test: MTS cell viability assay, HT-29; format: cell-based; settings: Homo sapiens; HT-29; 24-72 hours; MTS; read-out: Inhibition of growth IC50, HT-29 (Table II)
[7] = tested on: A549, Caco-2, HT-1080, PC-3, OVCAR-3, MDA-MB-231, WM115; test: MTS viability, all cancer cell lines tested (summary); format: cell-based, human
Protocol: as §2

UACC 903 tumors = test: Apoptosis and proliferation rates in size and time matched tumors; format: in vivo, nude mice; settings: day 15, i.p. on alternate days
Protocol: For mechanistic studies, 5×10^6 UACC 903 cells are injected subcutaneously into nude mice generating tumors of the same size developing at parallel time points. 6-days later mice are treated i.p. with DMSO vehicle, PBIT or PBISe (0.315 moles each) on alternate days up to day 15. Size and time matched tumors are harvested at days 9, 11, 13, and 15 to assess changes in cell proliferation and apoptosis. […] Protein concentration is quantitated using Bio-Rad protein assay reagent (Bio-Rad laboratories, Hercules, Calif.) and analyzed by Western blotting.
For caspase-3/7 activity determination, 100 μg of protein lysate is incubated with a Rhodamine-110 conjugated caspase-3/7 substrate (Z-DEVD) for 1-2 hours and fluorescence (485 nm excitation and 520 nm emission) measured in a SPECTRAmax M2 plate reader. […] A minimum of 6 different tumors with 4-6 fields per tumor is analyzed and results represented as the average±SEM. […]

[8] = tested on: 1205Lu melanoma cell line; test: MTS cell viability assay, 1205Lu; format: cell-based; settings: Homo sapiens; 1205Lu melanoma; 24 hours treatment; MTS; read-out: IC50, 1205Lu (Table I)
Protocol: Cellular viability compared to control treated cells is measured using the MTS assay (Promega, Madison, Wis.).

[9] = tested on: Caco-2 colon adenocarcinoma cells; test: MTS cell viability assay, Caco-2
Protocol: In vitro inhibitory efficacy is measured using 3-(4,5-dimethylthiazol-2-yl)-5-(3-carboxymethoxyphenyl)-2-(4-sulfophenyl)-2H-tetrazolium (MTS) assay (Promega, Madison, Wis.). […] Cells are treated with either vehicle control, PBS, PBIT (40-120 μM) or PBISe (2.4-10 μM) for 72 h. The percentages of viable cells compared to control PBS treated cells are determined using MTS assay and IC50 values calculated using GraphPad Prism version 4.01 (GraphPad software, San Diego, Calif.). An IC50 value for each compound is determined by at least three independent experiments and represented with a standard error.
The IC50 value is evaluated by treating with increasing concentrations of PBIT, PEIT, PEISe (10-100 μM) or PBISe (1.6-50 μM) for 24-72 hours and the number of viable cell are quantified using MTS (Promega, Wis.).

UACC 903 melanoma tumors = test: Topical application on melanoma tumor growth in vivo; settings: topical daily 0.0945 umoles (1.5 ppm selenium, 5.12 mg/kg); day 17 through day 29
Protocol: UACC 903 melanoma cells (0.25×10^5/site) are subcutaneously injected into left and right flanks of 4-6 weeks old female nude mice (n=4) and 24 h later PBIT, PBISe (0.0945 umoles, 1.5 ppm selenium equivalent to 5.12 mg/kg body weight) or vehicle control (acetone) is applied topically for 29 days. Sizes of developing tumors are measured and average sizes±S.E.M. (in mm^3) plotted. A minimum of 5 mice per group is used for the topical treatment.

[10] = tested on: OVCAR-3 ovarian carcinoma cells; test: MTS cell viability assay, OVCAR-3; format: cell-based, human
Protocol: as §2

[11] = tested on: HT-1080 fibrosarcoma cells; test: MTS cell viability assay, HT-1080; format: cell-based, human
Protocol: as §2

1205 Lu melanoma tumors = test: Tumorigenicity assessment, 1205 Lu xenograft, i.p. treatment; format: in vivo, nude mice; settings: day 24; i.p. 0.315 μmoles (2.5 ppm selenium) Monday, Wednesday, Friday for 3 weeks
Protocol: as §1

## N=C(N)[Se]CCc1ccc(CC[Se]C(=N)N)cc1 [PBISe, s,s′-1,4-phenylene-bis(1,2-ethanediyl)bis-isoselenourea dihydrobromide]
[1]; Homo sapiens, MDA-MB-231, 24 h, read-out: Inhibition Cancer Cells IC50, MDA-MB-231 (Table III)
  IC50: 6 ± 0.54 µM
[1]; ratio of IC50 PBIT/PBISe, MDA-MB-231
  Fold increase in efficacy (PBIT/PBISe), MDA-MB-231: >16.7 fold
UACC 903 melanoma cells
  reduction of cellular proliferative capacity compared to PBS vehicle or PBIT treated cells: ~90%
[2]
  IC50: 4.72 ± 0.44 µM
[3]
  fold higher concentrations required to kill fibroblasts compared to melanoma cells: 2-5 fold
[4]; i.p. 0.315 μmoles
  blood parameters (SGOT, SGPT, alkaline phosphatase, blood urea, glucose and creatinine): did not detect significant liver, kidney or cardiac related toxicity
  histological examination of H&E stained vital organ sections: did not significantly change cell morphology or organ structure
[4]; i.p. 3 times per week
  body weight during treatment: No significant difference
[5]; Homo sapiens, A549, 24 h, read-out: Inhibition Cancer Cells IC50, A549 (Table III)
  IC50: 4.2 ± 0.58 µM
[5]; ratio of IC50 PBIT/PBISe, A549
  Fold increase in efficacy (PBIT/PBISe), A549: >23.8 fold
[6]
  IC50: 3.84 ± 0.44 µM
[7]; A549, Caco-2, HT-1080, PC-3, OVCAR-3, MDA-MB-231, WM115
  fold more potent at decreasing cell viability compared to PBIT, all cancer cell lines tested: > 10 fold
[7]; Homo sapiens, read-out: concentration decreasing cell viability by 50% (IC50), cancer cell lines of Table III
  IC50: 8 to 10 µM
UACC 903 tumors
  caspase-3/7 activity in tumors versus PBIT or DMSO vehicle: 2 fold
[8]
  IC50: 9.8 ± 0.7 µM
[9]; Caco-2, 72 h, MTS
  increase in potency compared to PBIT: 25 fold
[9]; Caco-2, PBISe at 2-4 μM
  cells killed: > 80%
[9]; ratio of IC50 PBIT/PBISe, Caco-2
  Fold increase in efficacy (PBIT/PBISe), Caco-2: ~24.7 fold
[9]; read-out: IC50, Caco-2 colon adenocarcinoma cells, Caco-2, 72 h, MTS
  IC50: 2.4 µM
[9]; read-out: Inhibition Cancer Cells IC50, Caco-2 (Table III), Caco-2 colorectal adenocarcinoma, MTS
  IC50: 2.4 ± 0.43 µM
[9]; read-out: Inhibition of growth IC50, Caco-2 (Table II), Caco-2, 24-72 hours, MTS
  IC50: 2.4 ± 0.43 µM
UACC 903 melanoma tumors
  decrease in tumor volume versus vehicle acetone or PBIT treated mice: 50%
[10]; Homo sapiens, OVCAR-3, 24 h, read-out: Inhibition Cancer Cells IC50, OVCAR-3 (Table III)
  IC50: 5.3 ± 0.65 µM
[10]; ratio of IC50 PBIT/PBISe, OVCAR-3
  Fold increase in efficacy (PBIT/PBISe), OVCAR-3: >18.9 fold
[11]; Homo sapiens, HT-1080, 24 h, read-out: Inhibition Cancer Cells IC50, HT-1080 (Table III)
  IC50: 3.2 ± 0.61 µM
[11]; ratio of IC50 PBIT/PBISe, HT-1080
  Fold increase in efficacy (PBIT/PBISe), HT-1080: >31.2 fold
1205 Lu melanoma tumors
  difference in tumor volume compared to control DMSO or PBIT, 1205 Lu: ~50%
